Reference: patent publication US20210315840A1, “SOLID ORAL DOSAGE FORMS OF KETAMINE DERIVATIVES” (priority 2017, published 2021)

How the values were obtained:
[1] = molecular target: 5-HT2B (Homo sapiens, UniProt P41595); test: Binding assay 5-HT2B
Source text: (§1) 2R,6R-hydroxynorketamine was investigated for binding to monoamine oxidases A and B, monoamine transporters, as well as a variety of 5HT receptors.

[2] = molecular target: 5-HT1B (Homo sapiens, UniProt P28222); test: Binding assay 5-HT1B
Source text: as §1

[3] = molecular target: T1, 5-HT2C (Homo sapiens, UniProt P28335); test: Binding assay 5-HT2C
T1 sequence (P28335 33-458): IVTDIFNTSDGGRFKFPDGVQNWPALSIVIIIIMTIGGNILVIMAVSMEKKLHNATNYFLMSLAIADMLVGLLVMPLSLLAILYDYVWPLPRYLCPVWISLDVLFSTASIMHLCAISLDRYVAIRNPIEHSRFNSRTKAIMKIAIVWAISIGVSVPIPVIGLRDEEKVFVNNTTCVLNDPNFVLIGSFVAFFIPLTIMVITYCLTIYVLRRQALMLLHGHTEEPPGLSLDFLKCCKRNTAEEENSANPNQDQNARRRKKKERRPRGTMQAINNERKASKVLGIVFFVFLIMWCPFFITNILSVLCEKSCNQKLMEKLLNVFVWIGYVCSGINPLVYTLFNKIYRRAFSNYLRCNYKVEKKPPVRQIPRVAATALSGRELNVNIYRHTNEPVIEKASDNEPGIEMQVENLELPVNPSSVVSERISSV
Source text: as §1

Chain of 5-HT1B (P28222 whole entry, species assumed): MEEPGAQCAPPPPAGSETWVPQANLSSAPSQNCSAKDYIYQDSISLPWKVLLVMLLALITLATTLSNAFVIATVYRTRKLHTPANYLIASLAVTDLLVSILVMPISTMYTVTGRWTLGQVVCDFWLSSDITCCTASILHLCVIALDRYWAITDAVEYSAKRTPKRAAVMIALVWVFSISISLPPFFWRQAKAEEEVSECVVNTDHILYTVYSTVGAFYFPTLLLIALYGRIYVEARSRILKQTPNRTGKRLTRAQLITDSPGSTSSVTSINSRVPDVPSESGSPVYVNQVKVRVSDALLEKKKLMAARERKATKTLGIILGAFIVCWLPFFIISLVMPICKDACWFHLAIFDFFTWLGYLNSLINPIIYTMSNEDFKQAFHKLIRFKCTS
Chain of 5-HT2B (P41595 whole entry, species assumed): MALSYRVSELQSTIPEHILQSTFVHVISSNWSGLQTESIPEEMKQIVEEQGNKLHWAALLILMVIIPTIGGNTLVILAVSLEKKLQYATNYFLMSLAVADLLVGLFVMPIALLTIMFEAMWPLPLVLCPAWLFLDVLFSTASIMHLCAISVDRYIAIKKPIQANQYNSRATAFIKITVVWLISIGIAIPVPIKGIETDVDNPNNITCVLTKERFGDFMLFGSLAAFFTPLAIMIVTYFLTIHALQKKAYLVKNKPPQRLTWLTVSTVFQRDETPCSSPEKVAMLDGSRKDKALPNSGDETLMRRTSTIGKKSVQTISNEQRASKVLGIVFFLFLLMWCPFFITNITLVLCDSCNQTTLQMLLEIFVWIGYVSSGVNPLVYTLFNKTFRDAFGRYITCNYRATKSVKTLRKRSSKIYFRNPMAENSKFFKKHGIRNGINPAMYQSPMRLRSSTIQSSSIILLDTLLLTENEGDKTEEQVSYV

N[C@@]1(c2ccccc2Cl)CCC[C@@H](O)C1=O [2R,6R-hydroxynorketamine, 2R,6R-2-(2-Chlorophenyl)-2-(amino)-6-hydroxycyclohexanone]
% Inhibition of Control Specific Binding [1]: 5% | % of Control Specific Binding [1]: 100.9% | binding to 5HT2B receptor subtype (in words) [1]: does not bind | % Inhibition of Control Specific Binding [2]: −2% | % of Control Specific Binding [2]: 102.7% | binding to 5HT1B receptor subtype (in words) [2]: does not bind | % Inhibition of Control Specific Binding [3]: 10% | % of Control Specific Binding [3]: 91.1% | binding to 5HT2C receptor subtype (in words) [3]: does not bind
